Measurements as given in PubChem BioAssay (NCI).
Where “and” joins values, the source holds several entries; their conditions need not be identical. Equal values may be shown once.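 How tested: cells in 96-well plates exposed to compound for 48 hours at five concentrations. GI50 = concentration required for 50% inhibition of growth. TGI is the concentration that stops growth completely.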

Experiments:
Assay in all cases: growth of human tumour cells (NCI), 48 h
RPMI-8226 leukemia = system: RPMI-8226 leukemia
SK-OV-3 ovarian = system: SK-OV-3 ovarian
CAKI-1 renal = system: CAKI-1 renal
OVCAR-5 ovarian = system: OVCAR-5 ovarian
MOLT-4 leukemia = system: MOLT-4 leukemia
IGROV1 ovarian = system: IGROV1 ovarian
SNB-75 CNS = system: SNB-75 CNS
EKVX NSCLC = system: EKVX NSCLC
HCT-15 colon = system: HCT-15 colon
BT-549 breast = system: BT-549 breast

SMILES | GI50 (RPMI-8226 leukemia) [nM] | TGI (RPMI-8226 leukemia) [µM] | GI50 (SK-OV-3 ovarian) | TGI (SK-OV-3 ovarian) | GI50 (CAKI-1 renal) [µM] | TGI (CAKI-1 renal) [µM] | GI50 (OVCAR-5 ovarian) [µM] | TGI (OVCAR-5 ovarian) [µM] | GI50 (MOLT-4 leukemia) [nM] | TGI (MOLT-4 leukemia) [µM] | GI50 (IGROV1 ovarian) [nM] | TGI (IGROV1 ovarian) [µM] | GI50 (SNB-75 CNS) [µM] | TGI (SNB-75 CNS) [µM] | GI50 (EKVX NSCLC) [nM] | TGI (EKVX NSCLC) [µM] | GI50 (HCT-15 colon) [µM] | TGI (HCT-15 colon) | GI50 (BT-549 breast) [µM] | TGI (BT-549 breast) [µM]
COc1cc(-n2cc(-c3ccc(Cl)cc3)n(-c3ccccc3)c2=O)cc(OC)c1OC | 30600 | > 100 | 30800 nM | > 90.7 µM | 26.8 | > 89.9 | 39.4 | > 100 | 11300 | > 51.6 | 7870 | 36.2 | 20.9 | > 100 | 18500 | > 100 | 8.54 | > 100 µM | 17.5 | 57.3
c1cc(OCCN2CCCC2)ccc1CNc1ccc2nc(CCC3CCCCC3)[nH]c2c1 | 1350 | 3.64 | 2150 nM | 4.5 µM | 1.79 | 3.38 | 2.19 | 6.59 | 1760 | 5.81 | 2120 | 6.43 | 1.27 | 3.31 | 1860 | 6.51 | 1.55 | 3.7 µM | 1.56 | 3.17
COc1ccc(-c2cnc(-c3ccc(OC)cc3)n2-c2cc(OC)c(OC)c(OC)c2)cc1 | 25700 | > 100 | 23100 nM | 72.3 µM | 23.8 | 80.2 | 45.9 | > 100 | 13.1 | 0.044 | 28300 | > 100 | 12.6 | 30.1 | 36800 | > 100 | 36 | > 100 µM | 28.6 | 86.1
CCOC(=O)Cc1csc(NC(=O)C(OC(=O)c2ccc(Cl)cc2)c2ccccc2)n1 (stereo not drawn) | 17100 | 46.6 | > 100000 nM | > 100 µM | 61.9 | > 100 | 38.5 | > 100 | 26000 | > 100 | 47000 | > 100 | 26.1 | 95.1 | 59600 | > 100 | 51.6 | > 100 µM | 25.9 | 56.9
CCOc1ccc(-c2nc3ccc(-c4nc5ccc(N6CCN(C)CC6)cc5[nH]4)cc3[nH]2)cc1 | 48.4 | 0.71 | 379 nM and 478 nM | 1.84 µM and 1.86 µM | 0.555 | 2.55 | 1.47 | 3.07 | 299 | 1.81 | 514 | 2.44 | 0.131 | 0.354 | 658 | 3.1 | 1.48 | 7.61 µM | 1.16 | 2.46
Cc1ccc(/C(=N/NS(=O)(=O)c2cc(C)c(Cl)cc2Cl)Sc2cc(Cl)c(C)cc2S(N)(=O)=O)cc1 | 51300 | > 100 | > 100000 nM | > 100 µM | > 100 | > 100 | > 100 | > 100 | 17900 | > 100 | > 100000 | > 100 | > 100 | > 100 | 70900 | > 100 | > 100 | > 100 µM | 83.5 | > 100
CC[C@]12CN3CCc4c([nH]c5ccccc45)[C@@](C(=O)OC)(c4cc5c(cc4OC)N(C)[C@H]4[C@@](O)(C(=O)OC)[C@H](OC(C)=O)[C@]6(CC)C=CCN7CC[C@]54[C@@H]76)CC(C3)[C@H]1O2 (stereo partly drawn) | 138 | > 100 | – | > 100 µM | 3.72 | > 100 | 1.19 | > 100 | 236 | > 100 | 154 | > 100 | – | > 100 | 256 | > 100 | 2.92 | 9.43 µM and > 28.1 µM | 0.343 | –
NC(=O)c1cn(C2CC(O)C(CO)O2)c2ncnc(N)c12 (stereo not drawn) | 27700 | > 100 | 1680 nM | 43 µM | 3.2 | 39.4 | 9.81 | > 71.6 | 611 | > 100 | 749 | 5.16 | 1.52 | 9.47 | 1920 | > 23.2 | 3.89 | 55.2 µM | 0.203 | 2.87
CC1(C)C(=O)/C=C\C(=O)C(C)(C)C2=CC=C(O2)C(C)(C)C(=O)C(Br)C(Br)C(=O)C(C)(C)C2=CC=C1O2 (stereo not drawn) | – | 9.56 | – | > 100 µM | – | > 100 | – | > 100 | – | 30.6 | – | > 85.6 | – | > 80.3 | – | > 100 | – | > 100 µM | – | 76.5
Cc1nnn(C)c1-c1cnc2c3ccc(C(C)(C)O)cc3n([C@H](c3ccccc3)C3CCOCC3)c2c1 | < 10 | 27.9 | < 10 nM | 16.4 µM | < 0.01 | 13.2 | 0.0907 | > 100 | 197 | > 100 | < 20 | > 79.3 | < 0.01 | 20.3 | 221 | > 71.7 | < 0.0106 | 14.6 µM | 3.61 | 24
COc1cc2c3c(n(CCCN=[N+]=[N-])c(=O)c2cc1OC)-c1ccc(F)cc1C3=O | 1700 | 10.8 | 11600 nM | > 100 µM | 4.56 | > 100 | > 100 | > 100 | 2700 | 28.5 | – | – | 21.1 | 90.2 | 89400 | > 100 | 79.3 | > 100 µM | 12.4 | > 100
Cc1cccc2c(=O)c3c(sc12)c(NCCCNCCO)nc1ccccc13 | 1810 | 3.81 | – | – | 1.31 | 2.67 | 1.6 | 3.02 | 1130 | 2.62 | 1340 | 2.96 | 1.13 | 2.35 | 1570 | 3 | 1.51 | 2.96 µM | 1.85 | 4.27
